Experimental data as given in the NIST ThermoML archive (doi:10.1016/j.jct.2015.08.008).
Numbers after ± are expanded uncertainties.

Test: molar enthalpy of vaporization or sublimation
Settings: 298.15 K; Crystal; Static calorimetry

SMILES | molar enthalpy
CC(=O)c1cccc(C#N)c1 [3-acetylbenzonitrile] | 94.7 ± 1.5 kJ/mol
N#CCC(=O)c1ccccc1 [3-oxo-3-phenylpropanenitrile] | 98.5 ± 2.1 kJ/mol
